These results are taken from publication PMC9751290, “Design, synthesis, in vitro, in silico, and SAR studies of flavone analogs towards anti-dengue activity” (Scientific Reports, 2022).

Entries after “also recorded” stand apart in the source; their conditions may differ. Where two headings read alike, the source gives them in different places.

The subject of series [1] is DENV2 NGC. Description: Screening antiviral efficacy: viral inhibition at 10 µM in DENV2-infected LLC/MK2 cells, plaque titration. Format: cell-based, DENV2 (New Guinea C strain). Conditions: for inhibition at 10 µM: Dengue virus. Here is the method: The flavone analogs were preliminary screened for their viral inhibitory activity against DENV2 NGC (accession number NC_001474.2) in a LLC/MK2 (ATCC CCL-7™) cell-based system at the final concentration of 10 μM. […] On the other hand, the acylation of the hydroxy groups on the A-ring yielded mixed results.
LLC/MK2 cells (5 × 10^4) were seeded in 24-well plate and incubate at 37 °C under 5% CO2 overnight. Cells were infected with DENV2 NGC at a multiplicity of infection (M.O.I. of 0.1) and compounds at 10 µM were added and DMSO at 1% was used as control. Cultured plates were incubated for 1 h with gentle rocking every 15 min. Cells were washed with PBS, MEM supplemented with 1% FBS, 100 I.U./mL penicillin, and 100 µg/mL streptomycin, 10 mM HEPES was added in a presence of a compound at 10 µM. Cells were incubated at 37 °C with 5% CO2 for 3 days. Supernatants were collected to determine viral titers by plaque titration assay as previously described. The selected compounds were further analyzed for an effective concentration (EC50).

Series [2] in a line: Cellular toxicity in LLC/MK2 cells (MTS assay). Format: cell-based. To be noted: rhesus monkey. As for the experimental part:
Cytotoxicity of the compounds was also accessed at the concentration of 10 µM in parallel with the viral inhibition screening. LLC/MK2 cells (1 × 10^4) were seeded in 96-well plate and incubated at 37 °C under 5% CO2 overnight; compounds were added after 24 h, and then incubated for 2 days. DMSO at 1% was used as mock treatment. Cytotoxicity was measured using CellTiter 96® Aqueous One Solution Cell Proliferation Assay (MTS) kit (Promega, Wisconsin-Madison, WI, USA) according to the manufacturer’s instruction and analyzed by EnSight Multimode Plate Reader spectrophotometry at A450nm. (Perkin Elmer, Waltham, MA, USA).

Series [3] deals with DENV2. As to the kind of experiment: Antiviral efficacy (EC50) against DENV2 in LLC/MK2 cells, plaque titration. Format: cell-based, DENV2 (New Guinea C strain). Conditions: for EC50: Dengue virus, DENV2, LLC/MK2 cells, three independent experiments, read-out: EC50 (50% effective concentration against DENV2); for fold increase in activity compared with 8-bromobaicalein 5f / fold more active than the original baicalein 5a: EC50 against DENV2. Here is the method:
LLC/MK2 (ATCC® CCL-7), and C6/36 (ATCC® CRL-1660) cell lines were propagated and maintained as previously described[18],[29],[31]. Effective concentration (EC50) of the compounds against the DENV2 were tested using LLC/MK2 cells[18],[29]. Briefly, cells were seeded overnight and infected with each virus at the multiplicity of infection (M.O.I.) of 0.1 for 1 h. The compound was added during and after infection, and cells were incubated for 72 h. Supernatants were collected for plaque titration. EC50 results were means and standard errors of three independent experiments.

Series [4] has as its system dengue virus. Also on record: method as in PMID 28389141. To be noted: mice administered with luteolin; cited from earlier work.
The subject of series [5] is dengue and Zika virus. To be noted: cited from earlier work.
The nature of series [6]: Cellular toxicity in LLC/MK2 cells (MTS assay). It is filed as cell-based. Conditions: rhesus monkey. This is another data set of the same source. On the technique in general: Tetrazolium assays rely on reduction of a dye to a coloured formazan, in cell work by metabolically active cells.
Series [7] has as its system DENV2. Also on record: method as in PMID 23140177, PMID 29057920. Conditions: data according to literature (footnote f); read-out: EC50 (50% effective concentration against DENV2); cited from earlier work.
The test system of series [8] is DENV2 replication in Vero cells. Also on record: method as in PMID 31441148, PMID 23140177. To be noted: cited from earlier work.
Where [9] appears, read: DENV2, LLC-MK2, read-out: %Inhibition (%viral inhibition against DENV2).
Where [10] appears, read: 10 μM, read-out: %Viability in LLC/MK2 cell.
Where [11] appears, read: 10 μM, DENV2 NGC-infected LLC/MK2 cells, NA = not active, read-out: %Inhibition (%viral inhibition against DENV2).

Broadly, the melting point is the temperature, or range, at which the solid turns liquid. Regarding `CCC(=O)Oc1c(OC(=O)CC)c(OC(=O)CC)c2c(=O)cc(-c3ccccc3)oc2c1Br` [5h, 8-Bromo-5,6,7-tripropionoxyflavone], the melting point was in the range of 113 to 115 °C. Further, the “%Inhibition (%viral inhibition against DENV2)” value in series [1] (10 μM, DENV2 NGC-infected LLC/MK2 cells, NA = not active) is “inactive”. Also, in [2], the viability at 2 days, 10 µM is 84.5 ± 6.56%.

By inhibition is commonly meant the relative decrease from the control value, in per cent. Regarding `CC(=O)Oc1cc2oc(-c3ccccc3)cc(=O)c2c(OC(C)=O)c1OC(C)=O` [5c, 5,6,7-Triacetoxyflavone], the inhibition at 10 µM in series [1] (setting [9]) stood at 100%. For the same compound, in series [3], the EC50 is 0.41 ± 0.56 µM. The viability at 2 days, 10 µM in series [2] (setting [10]) is 107 ± 7.34%.

With `O=c1cc(-c2ccc([N+](=O)[O-])cc2)oc2cc(O)c(O)c(O)c12` [5n, 5,6,7-Trihydroxy-4′-nitroflavone], the inhibition at 10 µM in series [1] (setting [11]) amounted to 100%. Moreover, the EC50 in series [3] was found to be 4.3 ± 0.56 µM. Besides, the viability at 2 days, 10 µM in [2] came out at 78.5 ± 9.87%.

For the compound `O=c1cc(-c2ccc(O)c(O)c2)oc2cc(O)cc(O)c12` [luteolin], in series [4], the “reduction of the virus load” value was “tenfold reduction”.

On to `O=c1cc(-c2ccc(Br)cc2)oc2cc(O)c(O)c(O)c12` [5m, 4′-Bromo-5,6,7-trihydroxyflavone], for which the inhibition at 10 µM in series [1] (setting [11]) was 100%. Further, the EC50 in series [3] is 0.52 ± 0.12 µM. The viability at 2 days, 10 µM in series [2] was determined as 90 ± 6.61%.

For the compound `CCCCCCCCCCCCOc1c(Br)c(O)c2c(=O)cc(-c3ccccc3)oc2c1Br` [IV], in series [5], the EC50 was 4.17 µM.

A word on the CC50: it is the concentration at which the toxic effect on the cells reaches its halfway point. For `CCC(=O)Oc1cc2oc(-c3ccccc3)cc(=O)c2c(O)c1OC(=O)CC` [5e, 5-Hydroxy-6,7-dipropionoxyflavone], the melting point was 132 to 134 °C. In addition, the inhibition at 10 µM in series [1] (setting [11]) turned out to be 91.7%. In [3], the EC50 was 0.068 ± 0.04 µM, the “fold increase in activity compared with 8-bromobaicalein 5f” value was “over tenfold; also recorded: more than tenfold” and the “fold more active than the original baicalein 5a” value was “over 300 fold”. Also, the viability at 2 days, 10 µM in [2] worked out at 89.6 ± 5.95%. For the same compound, in [6], the CC50 at 2 days was over 100 µM.

`O=c1cc(-c2ccccc2)oc2c(Br)c(O)c(Br)c(O)c12` [4d, 6,8-Dibromo-5,7-dihydroxyflavone]: the inhibition at 10 µM in series [1] (setting [9]) is 83%. For the same compound, the viability at 2 days, 10 µM in series [2] turned out to be 101.1 ± 0.44%. Also, the EC50 in [7] is 1.47 ± 0.86 µM.

With `O=c1cc(-c2ccccc2)oc2c(Br)c(O)c(O)c(O)c12` [5f, 8-Bromo-5,6,7-trihydroxyflavone], the inhibition at 10 µM in [1] (setting [9]) was determined as 100%. In addition, the viability at 2 days, 10 µM in series [2] worked out at 73.4 ± 14.8%. For the same compound, the EC50 in series [7] was 0.88 ± 0.14 µM.

With `CC(=O)Oc1c(OC(C)=O)c(OC(C)=O)c2c(=O)cc(-c3ccccc3)oc2c1Br` [5g, 5,6,7-Triacetoxy-8-bromoflavone], in series [1] (setting [11]), the inhibition at 10 µM came to 100%. In addition, in [3], the EC50 is 0.26 ± 0.14 µM. Besides, the viability at 2 days, 10 µM in series [2] was determined as 50.9 ± 3.22%.

`COc1cc2oc(-c3ccc([N+](=O)[O-])cc3)cc(=O)c2c(O)c1OC` [5q, 5-Hydroxy-6,7-dimethoxy-4′-nitroflavone] returned a melting point of 145 to 150 °C. The inhibition at 10 µM in [1] (setting [11]) stood at 98.2%. Also, the EC50 in series [3] is 4.52 ± 0.76 µM. The viability at 2 days, 10 µM in series [2] stood at 84.7 ± 5.07%.

`COc1cc2oc(-c3ccc([N+](=O)[O-])cc3)cc(=O)c2c(O)c1O` [5r, 5,6-Dihydroxy-7-methoxy-4′-nitroflavone] yielded a melting point of 174 to 178 °C. Also, in series [1] (setting [11]), the inhibition at 10 µM amounted to 22.2%. Also, in series [2], the viability at 2 days, 10 µM turned out to be 91.6 ± 0.89%.

For orientation: IC50 means the concentration at which inhibition is half-maximal. For `O=c1cc(-c2ccccc2)oc2cc(O)c(O)c(O)c12` [5a, baicalein], in series [1] (setting [9]), the inhibition at 10 µM came out at 75%. Moreover, the viability at 2 days, 10 µM in series [2] (setting [10]) was 92.9 ± 1.44%. Moreover, the EC50 in series [7] was 23.9 µM. In series [8], the IC50 is 23.9 µM and the “selectivity index (SI)” value is reported as 17.8.

For the compound `CCC(=O)Oc1cc2oc(-c3ccccc3)cc(=O)c2c(OC(=O)CC)c1OC(=O)CC` [5d, 5,6,7-Tripropionoxyflavone], in series [1] (setting [9]), the inhibition at 10 µM was 90%. In [3], the EC50 turned out to be 0.07 ± 0.015 µM, the “fold increase in activity compared with 8-bromobaicalein 5f” value was “over tenfold; also recorded: more than tenfold” and the “fold more active than the original baicalein 5a” value was “over 300 fold”. Moreover, in series [2] (setting [10]), the viability at 2 days, 10 µM came to 83.8 ± 2.61%. Besides, the cytotoxic concentration (CC50) at 2 days in [6] (LLC/MK2 cells, read-out: CC50) is over 100 µM.
